Measurements as given in paper PMC5406460 (Frontiers in Microbiology, 2017).
In brackets after ≈: the same amount, converted by molar mass. Non-standard residues stand in square brackets, D forms with d. Residues, ends and D or L forms follow the SMILES beside them. ξ: configuration not given here. *: point of attachment. ξF = NC(Cc1ccccc1)C(=O)O; Cbz = O=C(OCc1ccccc1)*; CH2Cl = ClC*

Tests used:
ClpP1P2 = ClpP1P2 (Mycobacterium bovis, UniProt P0A527+P63784); assay: cell-based; type: cell-based, M. bovis BCG; conditions: for IC50: 24 h, read-out: Bacterial Clp IC50
bacterial proteasome = bacterial proteasome (Mycobacterium bovis, UniProt A1KKF3); assay: cell-based; set-up: species or system M. bovis BCG
bacterial proteasome, sequence (A1KKF3 whole entry, looked up): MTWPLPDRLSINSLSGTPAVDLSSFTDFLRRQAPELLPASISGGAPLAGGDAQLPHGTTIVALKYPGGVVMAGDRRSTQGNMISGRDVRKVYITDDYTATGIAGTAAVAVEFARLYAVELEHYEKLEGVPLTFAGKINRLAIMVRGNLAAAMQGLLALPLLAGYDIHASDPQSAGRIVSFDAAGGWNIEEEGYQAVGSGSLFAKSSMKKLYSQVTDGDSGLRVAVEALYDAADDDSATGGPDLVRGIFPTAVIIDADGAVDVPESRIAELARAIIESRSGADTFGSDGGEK

M. bovis BCG = assay: organism not typed; type: cell-based; conditions: 120 h, read-out: M. bovis MIC50
M. tuberculosis H37Rv [1] = assay: Turbidity-based growth inhibition (MIC50), M. tuberculosis H37Rv; type: cell-based; conditions: Mycobacterium tuberculosis, 120 h, 50% growth inhibition, 5 days, OD600
M. tuberculosis H37Rv [2] = assay: Minimum bactericidal concentration (MBC99) by CFU enumeration; type: cell-based; conditions: for MBC: Mycobacterium tuberculosis, H37RV, 120 h, concentration killing 99% of bacteria (100-fold kill), 5 days treatment
in vitro = conditions: human
human proteasome = human proteasome (Homo sapiens, UniProt P28074); assay: cell-based

Structure (SMILES) | IC50 (ClpP1P2) | IC50 (bacterial proteasome) | MIC50 (M. bovis BCG) | MIC50 (M. tuberculosis H37Rv [1]) | MBC (M. tuberculosis H37Rv [2]) | loss of potency against ClpP1P2 compared to Bortezomib (ClpP1P2; 25 vs. 1.6 μM) | reduction in bactericidal potency against M. tuberculosis (M. tuberculosis H37Rv [2]; compared to Bortezomib (MBC99)) | selectivity ratio (in vitro) | IC50 (human proteasome)
CC(C)C[C@H](NC(=O)[C@H](Cc1ccccc1)NC(=O)c1cnccn1)B(O)O [Pyr-FL-BA, Pyrazine-Phenylalanine-Leucine-Boronic acid] | 1.6 µM | 0.8 µM | 0.8 µM (≈ 0.307 µg/mL) | 4 µM (≈ 1.54 µg/mL) | 50 µM (≈ 19.2 µg/mL) | – | – | – | –
CC(C)C[C@H](NC(=O)[C@H](Cc1ccccc1)NC(=O)c1cnccn1)C(=O)CCl [Pyr-FL-CMK, N-((S)-1-(((S)-1-chloro-5-methyl-2-oxohexan-3-yl)amino)-1-oxo-3-phenylpropan-2-yl)pyrazine-2-carboxamide] | 25 µM | 25 µM | 20 µM (≈ 8.34 µg/mL) | 25 µM (≈ 10.4 µg/mL) | 100 µM (≈ 41.7 µg/mL) | ~15 fold | two-fold | ≥ 20 | > 500 µM
O=C(CNC(=O)OCc1ccccc1)NCC(=O)NC(Cc1ccccc1)C(=O)CCl (stereo not drawn) [Z-GGF-CMK, Carboxybenzyl-glycine-glycine-phenylalanine-CMK] (Cbz-Gly-Gly-[ξF]-CH2Cl) | 50 µM | 50 µM | 30 µM (≈ 13.4 µg/mL) | 30 µM (≈ 13.4 µg/mL) | – | – | – | – | > 500 µM
CC(C)C[C@H](NC(=O)CNC(=O)OCc1ccccc1)C(=O)NC(Cc1ccccc1)C(=O)CCl (stereo partly drawn) [Z-GLF-CMK, Carboxybenzyl-glycine-leucine-phenylalanine-CMK] (Cbz-Gly-Leu-[ξF]-CH2Cl) | 25 µM | 35 µM | 20 µM (≈ 10 µg/mL) | 20 µM (≈ 10 µg/mL) | 200 µM (≈ 100 µg/mL) | – | – | – | > 500 µM
